How the values were obtained:
Settings in all cases: safener II alone, 150 g/ha
[1] = test system: TRZAS; test: Greenhouse post-emergence test, damage to crop plant TRZAS; format: in vivo, spring wheat
Excerpt: (§1) For the post-emergence treatment, the test plants were first grown to a height of 3 to 20 cm, depending on the plant habit, and only then treated. Here, the herbicidal compositions were suspended or emulsified in water as distribution medium and sprayed using finely distributing nozzles. The respective component I was formulated as a 12% by weight strength emulsion concentrate, and component II as a 10% by weight suspension concentrate. Optionally components III can be used in their appropriate available formulation types. The components I, II and optionally III were introduced to the spray liquid with the amount of solvent system used for applying the active compound. The test period extended over 21 days. During this time, the plants were tended, and their response to the treatments with active compound was evaluated. The evaluation for the damage caused by the chemical compositions was carried out using a scale from 0 to 100%, compared to the untreated control plants. Here, 0 means no damage and 100 means complete destruction of the plants. […]

[2] = test system: ZEAMX; test: Greenhouse post-emergence test, damage to crop plant ZEAMX; format: in vivo, corn
Excerpt: as §1

[3] = test system: ABUTH; test: Greenhouse post-emergence test, herbicidal action against ABUTH; format: in vivo, velvetleaf
Excerpt: (§2) For the post-emergence treatment, the test plants were first grown to a height of 3 to 20 cm, depending on the plant habit, and only then treated. Here, the herbicidal compositions were suspended or emulsified in water as distribution medium and sprayed using finely distributing nozzles. The respective component I was formulated as a 12% by weight strength emulsion concentrate, and component II as a 10% by weight suspension concentrate. Optionally components III can be used in their appropriate available formulation types. The components I, II and optionally III were introduced to the spray liquid with the amount of solvent system used for applying the active compound. The test period extended over 21 days. During this time, the plants were tended, and their response to the treatments with active compound was evaluated. The evaluation for the damage caused by the chemical compositions was carried out using a scale from 0 to 100%, compared to the untreated control plants. Here, 0 means no damage and 100 means complete destruction of the plants. [table]

[4] = test system: HORVW; test: Greenhouse post-emergence test, damage to crop plant HORVW; format: in vivo, winter barley
Excerpt: as §1

[5] = test system: CHEAL; test: Greenhouse post-emergence test, herbicidal action against CHEAL; format: in vivo, lambsquaters
Excerpt: as §2

[6] = test system: POLCO; test: Greenhouse post-emergence test, herbicidal action against POLCO; format: in vivo, wild buckwheat
Excerpt: as §2

[7] = test system: AMARE; test: Greenhouse post-emergence test, herbicidal action against AMARE; format: in vivo, common amaranth
Excerpt: as §2

## COc1ccccc1C(=O)NS(=O)(=O)c1ccc(C(=O)NC2CC2)cc1 [II, N-[[4-[(cyclopropylamino)carbonyl]phenyl]sulfonyl]-2-methoxybenzamide]
[1]
  damaging effect on TRZAS: has not shown damaging effect
[2]
  damaging effect on ZEAMX: has not shown damaging effect
[3]
  herbicidal activity on ABUTH: has not shown herbicidal activity
[4]
  damaging effect on HORVW: has not shown damaging effect
[5]
  herbicidal activity on CHEAL: has not shown herbicidal activity
[6]
  herbicidal activity on POLCO: has not shown herbicidal activity
[7]
  herbicidal activity on AMARE: has not shown herbicidal activity

From patent US10512266B2, “Herbicidal compositions based on 3-phenyluracils and N-[[4-[cyclopropylamino)-carbonyl]phenyl]sulfonyl]-2-methoxybenzamide” (BASF SE, priority 2005, dated 2019)
